Test: Accelerated stability test: HMB-FA contents per capsule
Type: physicochemical
Details: for HMB FA contents: 40±2° C., 75% RH±5% RH, sealed HDPE bottles, HMB-FA 75 wt %, betaine anhydrous 18 wt %, purified water 7 wt %
Experimental: Accelerated Stability Test: To assess how the quality and purity of the instantly disclosed composition would vary with time under the influence of environmental factors of temperature and humidity, accelerated stability tests were performed. Tests were carried out according to guidelines provided in Stability Testing of New Drug Substances and Products issued by ICH and Stability testing guideline of dietary supplements by NSF. NSF Stability Testing Working Group, Stability testing guideline of dietary supplements, January 2011. […] The gel capsule composition was HMB-FA 75 wt %; betaine anhydrous 18 wt % and purified water 7 wt %. Samples were repacked in HDPE bottles (size: 1 80 ct, 300 rnl) then sealed with aluminum foil. Samples were exposed to high temperature and high humidity (40±2° C.; 75% RH±5% RH) and evaluated at 1, 2, and 3 months.

CC(C)(O)CC(=O)O [HMB FA, Beta-hydroxyisovaleric acid]
HMB FA contents (0 months): 519 mg/capsule
HMB FA contents (1 month): 494.4 mg/capsule
HMB FA contents (2 months): 484.8 mg/capsule
HMB FA contents (3 months): 491.8 mg/capsule
stability of HMB FA (overall) (high heat high humidity environments, periods exceeding three months): substantially stable

From patent publication US12133920B2, “Stabilization of beta-hydroxyisovaleric acid formulations in soft gel capsules” (TSI Group Ltd., priority 2016, dated 2024)
